Results on twelve molecules are retold here after US20250163116A1, “NEW METHOD TO TREAT INFECTIOUS DISEASES” (INSERM (INSTITUT NATIONAL DE LA SANTÉ ET DE LA RECHERCHE …, priority 2022, published 2025).

Sequences and labels used below:
B1: rhANGPTL8: recombinant human ANGPTL8 (9983-AN) from R&D Systems (protein, UniProt Q6UXH0 22-198, looked up)
Angiopoietin-like protein 8: APMGGPELAQHEELTLLFHGTLQLGQALNGVYRTTEGRLTKARNSLGLYGRTIELLGQEVSRGRDAAQELRASLLETQMEEDILQLQAEATAEVLGEVAQAQKVLRDSVQRLEVQLRSAWLGPAYREFEVLKAHADKQSHILWALTGHVQRQRREMVAQQHRLRQIQERLHTAALPA
B2: rhANGPTL3: recombinant human ANGPTL3 (3829-AN) from R&D Systems (protein, UniProt Q9Y5C1 17-460, looked up)
Angiopoietin-related protein 3: SRIDQDNSSFDSLSPEPKSRFAMLDDVKILANGLLQLGHGLKDFVHKTKGQINDIFQKLNIFDQSFYDLSLQTSEIKEEEKELRRTTYKLQVKNEEVKNMSLELNSKLESLLEEKILLQQKVKYLEEQLTNLIQNQPETPEHPEVTSLKTFVEKQDNSIKDLLQTVEDQYKQLNQQHSQIKEIENQLRRTSIQEPTEISLSSKPRAPRTTPFLQLNEIRNVKHDGIPAECTTIYNRGEHTSGMYAIRPSNSQVFHVYCDVISGSPWTLIQHRIDGSQNFNETWENYKYGFGRLDGEFWLGLEKIYSIVKQSNYVLRIELEDWKDNKHYIEYSFYLGNHETNYTLHLVAITGNVPNAIPENKDLVFSTWDHKAKGHFNCPEGYSGGWWWHDECGENNLNGKYNKPRAKSKPERRRGLSWKSQNGRLYSIKSTKMLIHPTDSESFE

For the first experiment, the system named is HDMECs infected with Nm 2C4.3. Description: Integrity of HDMEC monolayers infected with N. meningitidis (VE-cadherin at intercellular junctions, immunofluorescence). It is filed as cell-based, human. Particulars: 1 μg/mL added 30 min after initiation of Nm infection, 2 h 30. The method, then:
FIG. 1. Exogenous ANGPTL4 exerts protective effects on dermal microvascular endothelial cells infected by N. meningitidis. A. HDMECs were infected with Nm 2C4.3 for 30 min and treated with 1 μg/mL of recombinant human ANGPTL4 for 2 h 30. Cells were fixed and stained for cellular actin, VE-cadherin and DAPI and analyzed by fluorescent microscopy. Quantifications of VE-cadherin enrichment at intercellular junctions and of intercellular spaces area were performed on 30 fields with Image J software. Kruskal-Wallis test ** P<0.001; P<0.0001. B. HDMEC were either uninfected or infected with N. meningitidis 2C4.3 for 30 min and treated with 1 μg mL−1 of recombinant human ANGPTL4, its N-terminal portion (nANGPTL4) or its C-terminal portion (cANGPTL4) for 2 h 30. Caspase-3/7 reagent was added to detect apoptosis in real time over 9 h using the IncuCyte® Live-Cell Analysis System
FIG. 2: Vascular protection is conferred by the N-terminal part of ANGPTL4. A, Schematic representation of ANGPTL4 structure. ANGPTL4 contains a N-terminal portion (nANGPTL4, aa 26-164) linked to a C-terminal portion (cANGPTL4, aa 164-406) by a cleavable linker. nANGPTL4 contains a highly conserved lipoprotein lipase (LPL) binding domain (aa 44-55), two cysteines on position 76 and 80 involved in protein oligomerization and a coiled-coil domain (aa 100-143). The C-terminal portion encodes a fibrinogen-like domain. B, HDMECs were infected with Nm 2C4.3 for 30 min and treated with 1 μg/mL of recombinant human ANGPTL4, nANGPTL4 or cANGPTL4 for 2 h 30. Cells were fixed and stained for cellular actin, VE-cadherin and DAPI and analyzed by fluorescent microscopy. B. Quantifications of VE-cadherin enrichment at intercellular junctions and of intercellular spaces area were performed on 30 fields with Image J software. Kruskal-Wallis test ** P<0.001, *** P<0.0001 of four independent experiments performed in triplicate.
FIG. 3: Vascular protection is conferred by a novel binding motif (aa 66-80) present in the N-terminal part of ANGPTL4. A, the indicated peptides were derived from nANGPTL4. B, HDMECs were infected with Nm 2C4.3 for 30 min and treated with 1 μg/mL of each peptides. Quantifications of VE-cadherin enrichment at intercellular junctions was performed on 30 fields with Image J software.
FIG. 4: Vascular protection is conferred by interaction of nANGPTL4 with Syndecan-4. A, HDMECs were infected with Nm 2C4.3 for 30 min and treated with 1 μg/mL of recombinant human ANGPTL4, nANGPTL4 or cANGPTL4 in the absence or in the presence of anti-SDC4 antibody for 2 h 30. Cells were fixed and stained for cellular actin, VE-cadherin and DAPI and analysed by fluorescent microscopy. Quantifications of VE-cadherin enrichment at intercellular junctions and of intercellular spaces area were performed on 30 fields with Image J software. Kruskal-Wallis test ** P<0.001, **** P<0.00001, ns1 P=0.2172; ns2 P>0.999 of four independent experiments performed in triplicate. B, HDMECs were transfected with small interfering RNA (siRNA) against SDC4 or non-targeting siRNA controls for 48 h, infected with Nm 2C4.3 for 30 min and treated with 1 μg/mL of recombinant human ANGPTL4, for 2 h 30. Quantifications of VE-cadherin enrichment at intercellular junctions and of intercellular spaces area were performed on 30 fields with Image J software. Kruskal-Wallis test ** P<0.001, *** P<0.0001, of two independent experiments performed in triplicate.
The day of infection, a suspension of the bacteria from an overnight culture on GCB agar plate was adjusted to OD600=0.05 and incubated for 2 h at 37° C. in a pre-warmed cell culture medium. Cells were infected with bacteria at a multiplicity of infection (MOI) of 100 bacteria per cell (OD=0.1) for 30 minutes, washed twice to remove non-adherent bacteria and infection was allowed to proceed for various periods of time. Cells were then washed and fixed in 4% paraformaldehyde for immunofluorescence analysis. […]
Regarding LSALERRLSA (Peptide P8), the “protective effect on monolayer integrity (adherens junctions, cell detachment) of infected HDMECs” value (from here on “protective effect on monolayer integrity”) is “no effect”. For the molecule LSALERRLSACGS [Peptide P12], the “protective effect on monolayer integrity” value is recorded as “inhibits infection-induced damages”.

Take “PEVLHSLQTQLKAQNSRIQQLFHKVAQQQRHLEKQHLRIQHLQSQFGLLD (Peptide P2)”: the “protective effect on monolayer integrity” value is on record as “no significant effect”.

For QLSALERRLSACGSAC (Peptide P6), the “protective effect on monolayer integrity” value is “completely inhibited infection-induced damages”. Still for that read-out and setting: with REHAERTRSQLSALERRL (Peptide P5) the entry was “no effect”; with “REHAERTRSQLSALERRLSACGSACQGT (Peptide P4)”, “as efficient as P1 in providing protection”. As to RTRSQLSALERRLSA (Peptide P7), the “protective effect on monolayer integrity” value was “no effect”.

SALERRLSACGSAC [Peptide P13]: the “protective effect on monolayer integrity” value is “inhibits infection-induced damages”. On the same count and under the same terms, as for WDEMNVLAHGLLQLGQGL (Peptide P3), the entry is “no protective effects”; as for “WDEMNVLAHGLLQLGQGLREHAERTRSQLSALERRLSAAGSAAQGT (Peptide P1 C76A, C80A) [Peptide P1 C76A/C80A]”, “efficiently provided cytoprotection to infection-induced damages”. Regarding B1, the “protective effect on monolayer integrity” value was “no protective effect”. The same measure, in the same setting: with B2 the entry was “no protective effect”.

In a further experiment the test system is SCID mice grafted with human skin infected with Nm 2C4.3. In words: Vascular lesions in SCID mice grafted with human skin infected with N. meningitidis (4 h). Particulars: data not shown. It is filed as in vivo. The method, then:
FIG. 7: ANGPTL4 reduces signs of thrombosis, vascular injury and inflammation. A-D, SCID mice grafted with human skins were infected intravenously with Nm 2C4.3 wild-type strain (5×10^6 bacteria) or left uninfected. A period of 30 min or 2 h after bacterial challenge, mice received 1 μg of recombinant human ANGPTL4, nANGPTL4 or cANGPTL4 intravenously or the vehicle as a control. Mice were killed at 4 h post-challenge. This experiment was performed twice with n=3 or 4 mice per group, using skin from two different donors. A, A schematic representation of the protocols used in vivo. B, Control bacteraemia 4 h post-infection (mean±s.e.m.). C, Bacterial colonization within the skin grafts as assessed by immunofluorescence analysis was quantified using ImageJ software as the ratio between bacterial surface colonization and the lumen surface of the vessels. A total of 30-50 vessels per mouse were analysed. Error bars show mean±s.e.m. D, Thrombus formation within the skin grafts was assessed by immunofluorescence analysis and quantified using ImageJ as the ratio between thrombus surfaces and the lumen surface of the vessels. A total of 30-50 vessels per mouse were analysed. Error bars show mean±s.e.m.; *** P<0.0001; ns P=0.0541 two-tailed Student's t-test.
Six-week-old CB17/Icr-Prkdcscid female mice were obtained from Janvier Labs. Human skin tissues were obtained from adult patients undergoing plastic surgery in the Service de Chirurgie Plastique et Reconstructive of the Groupe Hospitalier Saint-Joseph. […] Experimental procedures were performed as previously described in accordance with the guidelines of the Institut National de la Santé et de la Recherche Médicale and conformed to the European ethical legislation (Directive 2010/63/EU). The experimental protocol was approved by the Animal Experimentation Ethics Committee of the Université Paris Descartes (consent forms CEEA34.O.J.L.039.12 and 2018012515596498). […]. A skin flap was created and a full thickness human skin graft was placed onto the wound bed. The transplants were held in place with 6-0 non-absorbable monofilament suture materials, and the flap was then sutured above the transplant. Grafted mice were infected 4-6 weeks after human skin transplantation. N. meningitidis was grown overnight at 37° C. on GCB agar plates prepared without iron and supplemented with 15 μM deferoxamine (Desferal, Novartis). Bacterial colonies were harvested and cultured in RPMI media with 1% BSA medium and 0.06 μM deferoxamine with gentle agitation to reach the exponential phase of growth. Bacteria were then resuspended in physiological saline solution. Mice were infected intravenously with 200 μl (5×10^6 bacteria) of this bacterial suspension. A 10 mg dose of human holotransferrin (R&D Systems) was administered intraperitoneally just before infection. Mice were killed at 4 h after infection. Human skin grafts were carefully collected using a sterile cutter. The tissue was washed in PBS and fixed overnight at 4° C. in 4% paraformaldehyde in phosphate buffer. After washing in phosphate buffer, the specimens were embedded in OCT medium and then frozen at −80° C. Sections of the dermis (7 μm thick) were immobilized on Superfrost Plus microscope slides and subjected to immunofluorescence analysis. Sections were incubated with the primary antibodies for 1 h in PBS/3% BSA then DAPI was added to Alexa-conjugated secondary antibodies for 1 h. After additional washing, coverslips were mounted in glycergel (Dako) and were further analysed using a slide scanner (Lamina, Perkin Elmer). Analysis of the images was performed using ImageJ software (NIH). […]
On to B1, for which the “protective effects on vascular alteration, thrombosis or the release of inflammatory markers” value is given as “no protective effects”. On to B2, for which the “protective effects on vascular alteration, thrombosis or the release of inflammatory markers” value is “no protective effects”.
